Measured values taken from ChEMBL document CHEMBL6153101, “Chamilactones A and B, Sesquiterpenes from the Endophytic Fungus Chaetomium nigricolor F5” (J Nat Prod, 2025).
Activity calls are given as the source filed them. The rule behind the calls is not given here.

Legend:
Format in all cases: functional, cell-based
[1] = system: BV-2; assay: Anti-neuroinflammatory effect in mouse BV-2 cells assessed as decrease in LPS-mediated TLR4 expression at 10 to 40 uM preincubated for 2 hrs followed by stimulation with LPS for 24 hrs by Western blot analysis; conditions: dose 10-40 µM, time 26.0 hrs
[2] = system: BV-2; assay: Anti-neuroinflammatory effect in mouse BV-2 cells assessed as suppression of LPS-mediated IL-6 secretion preincubated for 2 hrs followed by stimulation with LPS for 24 hrs by ELISA assay; conditions: dose 10-40 µM, time 26.0 hrs
[3] = system: BV-2; assay: Anti-neuroinflammatory effect in mouse BV-2 cells assessed as inhibition of LPS-mediated nuclear translocation of NF-kappaB p65 at 20 to 40 uM preincubated for 2 h followed by stimulation with LPS for 1 h by immunocytochemical analysis; conditions: dose 20-40 µM, time 3.0 hrs
[4] = system: BV-2; assay: Anti-neuroinflammatory effect in mouse BV-2 cells assessed as suppression of LPS-mediated TNF-alpha secretion preincubated for 2 hrs followed by stimulation with LPS for 24 hrs by ELISA assay; conditions: dose 10-40 µM, time 26.0 hrs
[5] = system: BV-2; assay: Anti-neuroinflammatory effect in mouse BV-2 cells assessed as decrease in LPS-mediated p-p65 expression preincubated for 2 hrs followed by stimulation with LPS for 24 hrs by Western blot analysis; conditions: dose 10-40 µM, time 26.0 hrs

Cc1c2c(cc3c1CCOC3=O)CC(C)(C)C2
Activity [1]: Active | Activity [2]: Dose-dependent-effect; Exhibited Most Potent Effect | inhibition [3]: Active | Activity [4]: Dose-dependent-effect; Exhibited Most Potent Effect | Activity [5]: Dose-dependent-effect
